Measurements reported in patent publication US12478602B2, “Method for treating a disorder” (priority 2023, dated 2025).

How the values were obtained:
[1] = tested on: healthy adults; experiment: Safety evaluation in healthy adults; type: in vivo, human; settings: single oral up to 30 g per day; 15 g twice a day for 7 days
Method: 24 hours before the administration with AST-001 (main component: L-serine), blood was collected to measure the concentration of L-serine. 60 g of an AST-001 powder is a white homogeneous powder without having foreign substances, divided and repackaged into an HDPE bottle or a bottle made of the same material, and the composition of this drug is such that 1,000 mg of the main component L-serine is comprised per 1,000 mg dose. […] As a result, it was confirmed that AST-001 can be safely administered within a dose range of 10 to 30 g per day for indications that require repeated administration. The results of the pharmacokinetic analysis in the AST-001 repeated administration test in healthy adult males are as shown in Table 2 below.

[2] = tested on: pediatric patients having autism spectrum disorder; settings: human, in vivo

N[C@@H](CO)C(=O)O [AST-001, L-serine]
safety and drug tolerance [1]: excellent safety and drug tolerance
Adverse event [TEAE], Events [2]: 41
